The text below walks through data of patent US20110098180A1, “Herbicide-Resistant Plants, And Polynucleotides And Methods For Providing Same” (United States Department of Agriculture, priority 2002, published 2011).

For assay [1], the system named is Hydrilla PDS Val^509 → Gly. Put plainly: Fluridone enzyme inhibition assay, other substitutions (Table 3). Format: biochemical, Hydrilla verticillata. As to the method:
(§1) To explore whether mutations at positions other than 304 of the hydrilla PDS enzyme and corresponding positions of other plant PDS enzymes also confer herbicide resistance, mutations discovered in Synechococcus strain PCC7942 (Leu^320→Pro; Val^403→Gly; Leu^436→Arg) were introduced into the hydrilla PDS sequence at the corresponding locations, and the resulting PDS enzymes tested for resistance.
(§2) Phytoene desaturase activity and its inhibition by herbicides was determined using an in vitro system using components derived from the in vivo production of phytoene and phytoene desaturase proteins. All mutations described in Examples 3 and 4 were tested. […] The clones were used for the heterologous expression of Hydrilla-PDS-enzyme. In particular, bacterial cultures were grown from single colonies overnight in Wu-broth (6.27 g/L K2HPO4, 1.8 g/L KH2PO4, 0.5 g/L Na-citrate, 0.9 g/L (NH4)2SO4, 10 g/L tryptone, 5 g/L yeast extract, 10 g/L NaCl, 44 ml/L glycerol, 0.1 mM MgSO4, pH 7.2) with kanamycin. 1-mL was aliquoted in centrifuge tube and stored at −80° C. For expression, 1 L LB-medium with kanamycin was inoculated with 1-mL Wu-culture and grown for 24 h at 37° C. to stationary phase with shaking at 200 rpm. The cells were collected by centrifugation at 2000×g. All of the following steps were done at 4° C. unless otherwise noted. Active soluble PDS enzyme was extracted by lysing the transformed E. coli cells using a French Press at 20,000 psi in assay buffer consisting of 100 mM Tris-HCl, pH 7.2, 10 mM magnesium-chloride, 0.1 mM NADP, 0.1 mM FAD, 10 mM cysteine, 5 mM DTT, 1 mM aminocaproic acid, and 1 μg/ml leupeptin. The soluble fraction containing PDS activity was obtained by centrifugation for 10 min at 1200×g. After 24 h they were centrifuged down and used in PDS enzyme activity assays as described below.
(§3) Generally, PDS protein fractions prepared as described above (Non-His-tagged and His-tagged) were mixed with a soluble fraction from phytoene-producing E. coli cells. […]

Assay [2] concerns Hydrilla PDS Leu^542 → Arg. The description is as above. It is filed as biochemical, Hydrilla verticillata. As for the experimental part:
as §1, §2, §3

The subject of assay [3] is Hydrilla PDS Leu^425 → Pro. Described as above. It is filed as biochemical, Hydrilla verticillata. As for the experimental part:
as §1, §2, §3

The test system of assay [4] is Synechocystis PDS with mutation corresponding to Leu^542→Arg. The note with it: prior work; cited from earlier work.
The target in assay [5] is T1, maize PDS Arg→His at position 292 (Zea mays, UniProt P49086, R292H).
T1 construct: vector-encoded N-terminal residues of pBluescript SK+ (in-frame fusion); made in house; host or cells: E. coli TOP10 (clone pMPDS3-33 from E. T. Wurtzel, mutagenised in house)
Put plainly: Mutant maize PDS enzyme resistance test. Format: biochemical. The text has this: The same mutagenesis procedure as described in the Examples above was used to convert the same key arginine amino acid (position 292, sequence ID No. 6) to histidine in corn PDS. Mutagenesis primers are listed below. A maize cDNA clone of PDS, that actively expressed PDS (basically sequence U37285 ligated in frame into pBluescript SK^+ and cloned in TOP10-cells) was provided by Eleanore T. Wurtzel, N Y (pMPDS3-33 as described in Z H Li, P D Matthews, B Burr & E T Wurtzel: Cloning and characterization of a maize cDNA encoding phytoene desaturase, an enzyme of the carotenoid biosynthetic pathway. Plant Molecular Biology 30: 269-279, 1996).
The resulting mutant maize PDS polynucleotide and protein were tested generally as described in Example 5 above. The mutant maize PDS enzyme ehxibited 50-fold to 60-fold resistance factor as compared to the wild type maize PDS enzyme.

T1 sequence (P49086 97-571 R292H): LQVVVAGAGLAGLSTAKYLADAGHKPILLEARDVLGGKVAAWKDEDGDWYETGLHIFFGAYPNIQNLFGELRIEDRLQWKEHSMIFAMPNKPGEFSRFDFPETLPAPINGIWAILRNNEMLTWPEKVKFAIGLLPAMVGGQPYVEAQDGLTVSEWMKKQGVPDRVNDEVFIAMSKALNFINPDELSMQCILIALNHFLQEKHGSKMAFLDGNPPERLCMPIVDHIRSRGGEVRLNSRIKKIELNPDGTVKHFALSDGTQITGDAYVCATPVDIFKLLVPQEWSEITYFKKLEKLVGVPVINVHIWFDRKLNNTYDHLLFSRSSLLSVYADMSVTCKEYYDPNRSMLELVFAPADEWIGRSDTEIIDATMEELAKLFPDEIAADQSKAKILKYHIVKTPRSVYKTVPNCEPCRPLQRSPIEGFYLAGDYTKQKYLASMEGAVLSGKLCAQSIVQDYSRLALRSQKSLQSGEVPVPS

Turning to Fluridone, the results for the R/S in assay [1], in assay [2] and in assay [3] were 14.5, 4.5 and 1.6, respectively. For the same substance, the “resistance provided by the mutation” value in assay [4] is “failed to provide resistance”. Further, the “resistance of modified maize PDS enzyme vs wild-type maize PDS enzyme” value in assay [5] is reported as “substantially more resistant”.
